Experiments:
human arginase I (ARG I) = human arginase I (ARG I) (Homo sapiens (Human), UniProt P05089); assay: Inhibition of arginase I, spectrophotometric urea assay at 530 nm; type: biochemical; settings: potency rank 1-5; pH 7.4, 37° C., 60 minutes
Protocol: (§1) Inhibition of arginase I (ARG I) and arginase II (ARG II) by Formula I or Formula II compounds is followed spectrophotometrically at 530 nm. The compound to be tested was dissolved in DMSO at an initial concentration 50-fold greater than its final concentration in the cuvette. 10 μl of the stock solution was diluted in 90 μl of the assay buffer that comprises 0.1M sodium phosphate buffer containing 130 mM NaCl, pH 7.4, to which is added ovalbumin (OVA) at a concentration of 1 mg/ml. Solutions of arginase I and II were prepared in 100 mM sodium phosphate buffer, pH 7.4 containing 1 mg/ml of OVA to give an arginase stock solution at a final concentration of 100 ng/ml.
(§2) To each well of a 96-well microtiter plate was added 40 μl of enzyme, 10 μl of an inventive compound and 10 μl of enzyme substrate (L-arginine+manganese sulfate). For wells that were used as positive controls, only the enzyme and its substrate were added, while wells used as negative controls contained only manganese sulfate.
(§3) After incubating the microtiter plate at 37° C. for 60 minutes, 150 μl of a urea reagent obtained by combining equal proportions (1:1) of reagents A and B is added to each well of the microtiter plate to stop the reaction. The urea reagent is made just before use by combining Reagent A (10 mM o-phthaldialdehyde, and 0.4% polyoxyethylene (23) lauryl ether (w/v) in 1.8 M sulfuric acid) with Reagent B (1.3 mM primaquine diphosphate, 0.4% polyoxyethylene (23) lauryl ether (w/v), 130 mM boric acid in 3.6 mM sulfuric acid). After quenching the reaction mixture, the microtiter plate is allowed to stand for an additional 10 minutes at room temperature to allow the color to develop. The inhibition of arginase was computed by measuring the optical density (OD) of the reaction mixture at 530 nm and normalizing the OD value to percent inhibition observed in the control. The normalized OD is then used to generate a dose-response curve by plotting the normalized OD values against log [concentration] and using regression analysis to compute the IC50 values.

[1] = target: human arginase II (ARG II) (Homo sapiens (Human), UniProt P78540); assay: Inhibition of arginase II, spectrophotometric urea assay at 530 nm; type: biochemical; settings: potency rank 1-5; pH 7.4, 37° C., 60 minutes
Protocol: as §1, §2, §3

Sequence of human arginase I (ARG I) (P05089 whole entry): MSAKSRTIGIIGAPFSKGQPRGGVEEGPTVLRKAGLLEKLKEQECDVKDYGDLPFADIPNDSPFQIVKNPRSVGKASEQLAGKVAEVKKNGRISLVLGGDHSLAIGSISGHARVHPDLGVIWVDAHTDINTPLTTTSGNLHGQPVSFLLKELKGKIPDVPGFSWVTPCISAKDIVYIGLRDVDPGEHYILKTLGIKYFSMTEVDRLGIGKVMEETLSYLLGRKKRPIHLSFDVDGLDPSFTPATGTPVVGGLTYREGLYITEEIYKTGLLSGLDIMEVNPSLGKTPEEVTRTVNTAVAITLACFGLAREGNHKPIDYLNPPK
Sequence of human arginase II (ARG II) (P78540 23-354): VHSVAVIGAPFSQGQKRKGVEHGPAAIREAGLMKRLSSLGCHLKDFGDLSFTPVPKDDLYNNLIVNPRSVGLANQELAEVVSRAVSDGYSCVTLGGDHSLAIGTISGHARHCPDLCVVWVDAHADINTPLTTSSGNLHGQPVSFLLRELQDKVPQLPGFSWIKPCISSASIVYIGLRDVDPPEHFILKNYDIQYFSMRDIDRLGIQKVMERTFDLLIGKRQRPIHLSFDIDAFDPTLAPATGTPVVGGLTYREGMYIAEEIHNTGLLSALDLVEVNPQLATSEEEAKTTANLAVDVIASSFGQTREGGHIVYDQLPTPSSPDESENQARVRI

| IC50 (human arginase I (ARG I)) [nM] | IC50 [1] [nM] | Compound |
| --- | --- | --- |
| 251 to 1000 | 1000 to 2000 | N[C@@]1(C(=O)O)CN(C2CCC(C(=O)O)CC2)C[C@@H]1CCCB(O)O (stereo partly drawn) [Example 30, (3R,4S)-3-amino-4-(3-boronopropyl)-1-(4-carboxycyclohexyl)pyrrolidine-3-carboxylic acid] |
| 251 to 1000 | 1000 to 2000 | NC[C@H]1C[C@H](CCCB(O)O)[C@](N)(C(=O)O)C1 (racemic) [Example 65, (1S,2S,4S)-1-amino-4-(aminomethyl)-2-(3-boronopropyl)cyclopentanecarboxylic acid] |
| 0.1 to 250 | 0.1 to 250 | N[C@@]1(C(=O)O)CN(CCCc2ccc(C(=O)O)cc2)C[C@@H]1CCCB(O)O [Example 16, (3R,4S)-3-amino-4-(3-boronopropyl)-1-(3-(4-carboxyphenyl)propyl)pyrrolidine-3-carboxylic acid] |
| 0.1 to 250 | 251 to 1000 | N[C@@]1(C(=O)O)CN(CC2CCCN2)C[C@@H]1CCCB(O)O (stereo partly drawn) [Example 37, (3R,4S)-3-amino-4-(3-boronopropyl)-1-(pyrrolidin-2-ylmethyl)pyrrolidine-3-carboxylic acid] |
| 0.1 to 250 | 0.1 to 250 | N[C@@]1(C(=O)O)CN(CC2Cc3ccc(Cl)cc3CN2)C[C@@H]1CCCB(O)O (stereo partly drawn) [Example 49, (3R,4S)-3-amino-4-(3-boronopropyl)-1-((7-chloro-1,2,3,4-tetrahydroisoquinolin-3-yl)methyl)pyrrolidine-3-carboxylic acid] |
| 251 to 1000 | 251 to 1000 | N[C@@]1(C(=O)O)CN(C(=O)Nc2ccc(Cl)cc2)C[C@@H]1CCCB(O)O [Example 42, (3R,4S)-3-amino-4-(3-boronopropyl)-1-(4-chlorophenylcarbamoyl)pyrrolidine-3-carboxylic acid] |
| 2000 to 5000 |  | CN(C)CC(C)(C)CN1C[C@H](CCCB(O)O)[C@](N)(C(=O)O)C1 [Example 17, (3R,4S)-3-amino-4-(3-boronopropyl)-1-(3-(dimethylamino)-2,2-dimethylpropyl)pyrrolidine-3-carboxylic acid] |

Continued, compound first:

| Compound | IC50 (human arginase I (ARG I)) [nM] | IC50 [1] [nM] |
| --- | --- | --- |
| NC[C@@H]1C[C@H](CCCB(O)O)[C@](N)(C(=O)O)C1 (racemic) [Example 64, (1S,2S,4R)-1-amino-4-(aminomethyl)-2-(3-boronopropyl)cyclopentanecarboxylic acid] | 0.1 to 250 | 0.1 to 250 |
| COc1ccc(C(=O)N2C[C@H](CCCB(O)O)[C@](N)(C(=O)O)C2)cc1 [Example 47, (3R,4S)-3-amino-4-(3-boronopropyl)-1-(4-methoxybenzoyl)pyrrolidine-3-carboxylic acid] | 251 to 1000 | 251 to 1000 |
| N[C@@]1(C(=O)O)CN(C(=O)CNCc2ccccc2)C[C@@H]1CCCB(O)O [Example 60, (3R,4S)-3-amino-1-(2-(benzylamino)acetyl)-4-(3-boronopropyl)pyrrolidine-3-carboxylic acid] | 251 to 1000 | 1000 to 2000 |
| CN[C@@]1(C(=O)O)CNC[C@@H]1CCCB(O)O [Example 35, (3R,4S)-4-(3-boronopropyl)-3-(methylamino)pyrrolidine-3-carboxylic acid] | 251 to 1000 | 251 to 1000 |
| N[C@@]1(C(=O)O)CN(Cc2cccnc2)C[C@@H]1CCCB(O)O [Example 13, (3R,4S)-3-amino-4-(3-boronopropyl)-1-(pyridin-3-ylmethyl)pyrrolidine-3-carboxylic acid] | 251 to 1000 | 1000 to 2000 |
| N[C@@]1(C(=O)O)CCNC[C@H]1CCCB(O)O [Example 6, (3R,4S)-4-amino-3-(3-boronopropyl)piperidine-4-carboxylic acid] | 251 to 1000 | 2000 to 5000 |
| N[C@@]1(C(=O)O)CN(C2CCNCC2)C[C@@H]1CCCB(O)O [Example 26, (3R,4S)-3-amino-4-(3-boronopropyl)-1-(piperidin-4-yl)pyrrolidine-3-carboxylic acid] | 251 to 1000 | 251 to 1000 |
| N[C@@]1(C(=O)O)CN(c2ncnc3nc[nH]c23)C[C@@H]1CCCB(O)O [Example 23, (3R,4S)-3-amino-4-(3-boronopropyl)-1-(7H-purin-6-yl)pyrrolidine-3-carboxylic acid] | 251 to 1000 | 1000 to 2000 |

Reference: patent US10098902B2, “Arginase inhibitors as therapeutics” (Mars, Incorporated, priority 2010, dated 2018)
